According to the supplement of paper PMC10307832:

Tests used:
Assay in all cases: relative viability (nuclei count vs DMSO), 5 days (fraction); higher = more cells survive
[1] = compound: C1=CC2=C(C=C(C(=C2N=C1)O)N=NC3=CC4=C(C=C3)C=C(C=C4)S(=O)(=O)O)S(=O)(=O)O + Cc1cc(Nc2cc(N3CCN(C)CC3)nc(Sc3ccc(NC(=O)C4CC4)cc3)n2)n[nH]1 [Tozasertib] (partner 0.1 µM)
Summary of the method: (§1)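 Five library-drug doses in √10 steps were combined with a fixed anchor-drug dose, or a single drug was given alone, by pin tool to lung cancer cell lines in 1536-well plates the day after seeding. Nuclei were stained and counted after 5 days. Relative viability is the nuclei count in treated wells over that in vehicle wells, taken as the median of duplicate plates.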

[2] = compound: C1=CC2=C(C=C(C(=C2N=C1)O)N=NC3=CC4=C(C=C3)C=C(C=C4)S(=O)(=O)O)S(=O)(=O)O + NC(=O)Nc1cc(-c2cccc(F)c2)sc1C(=O)N[C@H]1CCCNC1 [AZD7762] (partner 0.2 µM)
Summary of the method: as §1

[3] = compound: O=C(NC1CCNCC1)c1n[nH]cc1NC(=O)c1c(Cl)cccc1Cl [AT-7519] + N=C(N)NC(=N)NCCc1ccccc1 [Phenformin] (partner 250 µM)
Summary of the method: as §1

[4] = compound: C1=CC2=C(C=C(C(=C2N=C1)O)N=NC3=CC4=C(C=C3)C=C(C=C4)S(=O)(=O)O)S(=O)(=O)O + Nc1nc2[nH]cc(CCc3ccc(C(=O)N[C@@H](CCC(=O)O)C(=O)O)cc3)c2c(=O)[nH]1 [Pemetrexed] (partner 0.2 µM)
Summary of the method: as §1

| Cell Line | relative viability ([1]; first compound 0.08 µM) | relative viability ([1]; first compound 0.253 µM) | relative viability ([1]; first compound 0.8 µM) | relative viability ([1]; first compound 2.53 µM) | relative viability ([1]; first compound 8 µM) | relative viability ([2]; first compound 0.08 µM) | relative viability ([2]; first compound 0.253 µM) | relative viability ([2]; first compound 0.8 µM) | relative viability ([2]; first compound 2.53 µM) | relative viability ([2]; first compound 8 µM) | relative viability ([3]; first compound 0.01 µM) | relative viability ([3]; first compound 0.03162 µM) | relative viability ([3]; first compound 0.3162 µM) | relative viability ([3]; first compound 1 µM) | relative viability ([4]; first compound 0.08 µM) | relative viability ([4]; first compound 0.253 µM) | relative viability ([4]; first compound 0.8 µM) | relative viability ([4]; first compound 2.53 µM) | relative viability ([4]; first compound 8 µM) |
| --- | --- | --- | --- | --- | --- | --- | --- | --- | --- | --- | --- | --- | --- | --- | --- | --- | --- | --- | --- |
| 201T | 1.03 | 0.901 | 0.987 | 0.967 | 0.934 | 0.691 | 0.652 | 0.56 | 0.632 | 0.634 | 0.461 | 0.441 | 0.486 | 0.473 | 0.324 | 0.319 | 0.341 | 0.332 | 0.354 |
| A549 | – | – | – | – | – | – | – | – | – | – | 0.131 | 0.153 | 0.158 | 0.0741 | – | – | – | – | – |
| A-427 | 0.235 | 0.216 | 0.207 | 0.239 | 0.252 | 0.823 | 0.816 | 0.767 | 0.822 | 0.743 | 0.233 | 0.315 | 0.238 | 0.222 | 0.996 | 1.02 | 0.929 | 1.07 | 0.996 |
| ABC-1 | 0.155 | 0.199 | 0.176 | 0.167 | 0.132 | 0.741 | – | 0.831 | 0.691 | 0.667 | 0.245 | 0.242 | 0.234 | 0.164 | – | – | – | – | – |
| BEN | 0.55 | 0.535 | 0.572 | 0.548 | 0.47 | 0.694 | 0.749 | 0.729 | 0.77 | 0.557 | 0.522 | 0.234 | 0.269 | 0.257 | 0.745 | 0.736 | 0.76 | 0.867 | 0.61 |
| CAL-12T | 0.29 | 0.34 | 0.378 | 0.327 | 0.296 | 0.621 | 0.6 | 0.61 | 0.635 | 0.601 | 0.531 | 0.579 | 0.272 | 0.188 | 1.25 | 1.18 | 1.14 | 1.18 | 1.13 |
| COR-L23 | 0.22 | 0.173 | 0.247 | 0.197 | 0.233 | – | – | – | – | – | 0.459 | 0.412 | 0.287 | 0.144 | 0.206 | 0.202 | 0.2 | 0.199 | 0.192 |
| COR-L 105 | 0.355 | 0.37 | 0.367 | 0.361 | 0.378 | – | – | – | – | – | 0.451 | 0.489 | 0.301 | 0.286 | 1.3 | 1.14 | 1.21 | 1.04 | 1.1 |
| ChaGo-K-1 | 0.238 | 0.198 | 0.205 | 0.205 | 0.244 | 0.933 | 0.82 | 0.845 | 0.892 | 0.721 | 0.459 | 0.392 | 0.404 | 0.451 | 0.256 | 0.257 | 0.272 | 0.256 | 0.242 |
| EKVX | 0.458 | 0.44 | 0.34 | 0.446 | 0.389 | 0.836 | 0.78 | 0.61 | 0.702 | 0.702 | 0.246 | 0.242 | 0.259 | 0.23 | 0.41 | 0.369 | 0.393 | 0.397 | 0.388 |
| EMC-BAC-2 | 0.303 | 0.29 | 0.303 | 0.337 | 0.302 | 1.04 | 1.1 | 1.09 | 1.14 | 0.995 | 0.52 | 0.524 | 0.495 | 0.585 | 0.417 | 0.433 | 0.433 | 0.458 | 0.421 |
| EPLC-272H | 0.351 | 0.365 | 0.203 | 0.273 | 0.325 | 0.204 | 0.212 | 0.177 | 0.311 | 0.177 | 0.272 | 0.295 | 0.307 | 0.198 | 0.327 | 0.364 | 0.358 | 0.374 | 0.379 |
| H3255 | 0.59 | 0.705 | 0.655 | 0.604 | 0.864 | 0.893 | 0.881 | 0.89 | 0.939 | 0.899 | 0.489 | 0.384 | 0.313 | 0.31 | 0.545 | 0.576 | 0.559 | 0.556 | 0.57 |
| HARA | 0.105 | 0.107 | 0.102 | 0.111 | 0.117 | 0.384 | 0.261 | 0.267 | 0.362 | 0.469 | 0.415 | 0.52 | 0.503 | 0.358 | 0.212 | 0.214 | 0.252 | 0.206 | 0.237 |
| HCC-15 | 0.462 | 0.458 | 0.422 | 0.441 | 0.45 | 1.32 | 1.25 | 1.23 | 1.18 | 1.15 | 0.468 | 0.422 | 0.401 | 0.241 | 0.221 | 0.229 | 0.213 | 0.235 | 0.24 |
| HCC-44 | – | 0.853 | 0.999 | 1.03 | 0.873 | 1.01 | 1.03 | 0.997 | 1.05 | 1.04 | 0.15 | 0.199 | 0.154 | 0.205 | 0.703 | 0.692 | 0.649 | 0.675 | 0.728 |
| HCC-78 | 0.41 | 0.345 | 0.469 | 0.488 | 0.349 | 0.725 | 0.628 | 0.675 | 0.657 | 0.591 | 0.712 | 0.604 | 0.596 | 0.662 | 0.915 | 0.922 | 0.902 | 0.887 | 0.908 |
| HCC-366 | 0.152 | 0.0806 | 0.188 | 0.113 | 0.125 | 0.291 | 0.273 | 0.26 | 0.272 | 0.291 | 0.624 | 0.616 | 0.613 | 0.509 | 0.162 | 0.14 | 0.157 | 0.145 | 0.163 |
